Measurements as given in ChEMBL document CHEMBL3124779, “Discovery of ABT-267, a pan-genotypic inhibitor of HCV NS5A” (J Med Chem, 2014).

Legend:
[1] = test system: Hepatitis C virus; test: Antiviral activity against HCV1a harboring NS5A M28T mutant infected in human HuH7 cells assessed as inhibition of viral replication after 4 days by luciferase reporter gene assay; type: functional, Hepacivirus hominis, subtype 1a, Huh-7
[2] = test system: Hepatitis C virus; test: Antiviral activity against HCV1b harboring NS5A Y93H mutant infected in human HuH7 cells assessed as inhibition of viral replication after 4 days by luciferase reporter gene assay; type: functional, Hepacivirus hominis, genotype 1b, Huh-7
[3] = test system: Hepatitis C virus; test: Resistant ratio of EC50 for wild type HCV1b to EC50 for HCV1b harboring NS5A L28T mutant infected in human HuH7 cells; type: functional, Hepacivirus hominis, genotype 1b, Huh-7
[4] = Half life in monkey at 1 mg/kg, iv; type: ADME, organism-based, Macaca mulatta; parameters: dose 1 mg/kg, route intravenous; details: rhesus monkey, in vivo
[5] = test system: Hepatitis C virus; test: Resistant ratio of EC50 for wild type HCV1a to EC50 for HCV1a harboring NS5A H58D mutant infected in human HuH7 cells; type: functional, Hepacivirus hominis, subtype 1a, Huh-7
[6] = test system: Hepatitis C virus; test: Antiviral activity against HCV4a infected in human HuH7 cells assessed as inhibition of viral replication after 4 days by luciferase reporter gene assay; type: functional, organism-based, Hepacivirus hominis; details: genotype 4a, Huh-7, 96 h
[7] = test system: Hepatitis C virus; test: Antiviral activity against HCV2b infected in human HuH7 cells assessed as inhibition of viral replication after 4 days by luciferase reporter gene assay; type: functional, organism-based, Hepacivirus hominis; details: genotype 2b, Huh-7, 96 h
[8] = Oral bioavailability in rat at 3 mg/kg; type: ADME, organism-based; details: in vivo
[9] = Clearance in dog at 1 mg/kg, iv; type: ADME, organism-based, Canis lupus familiaris; parameters: dose 1 mg/kg, route intravenous; details: in vivo
[10] = test system: Hepatitis C virus; test: Antiviral activity against HCV1a harboring NS5A Q30R mutant infected in human HuH7 cells assessed as inhibition of viral replication after 4 days by luciferase reporter gene assay; type: functional, Hepacivirus hominis, subtype 1a, Huh-7
[11] = test system: Hepatitis C virus; test: Antiviral activity against HCV5a infected in human HuH7 cells assessed as inhibition of viral replication after 4 days by luciferase reporter gene assay; type: functional, organism-based, Hepacivirus hominis; details: genotype 5a, Huh-7, 96 h
[12] = test system: Hepatitis C virus; test: Antiviral activity against HCV6a infected in human HuH7 cells assessed as inhibition of viral replication after 4 days by luciferase reporter gene assay; type: functional, organism-based, Hepacivirus hominis; details: genotype 6a, Huh-7, 96 h
[13] = Metabolic stability in human liver microsomes assessed as compound remaining after 30 mins; type: ADME; details: read-out: Stability
[14] = Cmax in dog at 2.5 mg/kg, po; type: ADME, organism-based, Canis lupus familiaris; parameters: dose 2.5 mg/kg, route oral; details: in vivo
[15] = test system: Hepatitis C virus; test: Resistant ratio of EC50 for wild type HCV1b to EC50 for HCV1b harboring NS5A L31F and Y93H mutant infected in human HuH7 cells; type: functional, Hepacivirus hominis, genotype 1b, Huh-7
[16] = Half life in monkey at 2.5 mg/kg, po; type: ADME, organism-based, Macaca mulatta; parameters: dose 2.5 mg/kg, route oral; details: rhesus monkey, in vivo
[17] = test system: Hepatitis C virus; test: Resistant ratio of EC50 for wild type HCV1b to EC50 for HCV1b harboring NS5A R30Q and Y93H mutant infected in human HuH7 cells; type: functional, Hepacivirus hominis, genotype 1b, Huh-7
[18] = test system: Hepatitis C virus; test: Resistant ratio of EC50 for wild type HCV1b to EC50 for HCV1b harboring NS5A Y93H mutant infected in human HuH7 cells; type: functional, Hepacivirus hominis, genotype 1b, Huh-7
[19] = AUC in monkey at 2.5 mg/kg, po; type: ADME, organism-based, Macaca mulatta; parameters: dose 2.5 mg/kg, route oral; details: rhesus monkey, plasma
[20] = Half life in rat at 3 mg/kg, iv; type: ADME, organism-based; parameters: dose 3 mg/kg, route intravenous; details: in vivo
[21] = test system: Hepatitis C virus; test: Antiviral activity against HCV2a infected in human HuH7 cells assessed as inhibition of viral replication after 4 days by luciferase reporter gene assay; type: functional, organism-based, Hepacivirus hominis; details: genotype 2a, Huh-7, 96 h
[22] = species on record: Homo sapiens; test: Toxicity in HCV1 infected patient assessed as laboratory abnormalities at 5 to 200 mg qd for 3 days; type: organism-based; details: in vivo, 72 h
[23] = Half life in dog at 2.5 mg/kg, po; type: ADME, organism-based, Canis lupus familiaris; parameters: dose 2.5 mg/kg, route oral; details: in vivo
[24] = test system: Hepatitis C virus; test: Resistant ratio of EC50 for wild type HCV1a to EC50 for HCV1a harboring NS5A Y93C mutant infected in human HuH7 cells; type: functional, Hepacivirus hominis, subtype 1a, Huh-7
[25] = test system: Hepatitis C virus; test: Antiviral activity against HCV1b harboring NS5A R30Q and Y93H mutant infected in human HuH7 cells assessed as inhibition of viral replication after 4 days by luciferase reporter gene assay; type: functional, Hepacivirus hominis, genotype 1b, Huh-7
[26] = Volume of distribution at steady state in monkey at 1 mg/kg, iv; type: ADME, organism-based, Macaca mulatta; parameters: dose 1 mg/kg, route intravenous; details: rhesus monkey, in vivo, read-out: Vdss
[27] = test system: Hepatitis C virus; test: Resistant ratio of EC50 for wild type HCV1b to EC50 for HCV1b harboring NS5A L31V and Y93H mutant infected in human HuH7 cells; type: functional, Hepacivirus hominis, genotype 1b, Huh-7
[28] = test system: Hepatitis C virus; test: Antiviral activity against HCV1a H77 infected in human HuH7 cells assessed as inhibition of viral replication after 4 days by luciferase reporter gene assay; type: functional, organism-based, Hepacivirus hominis; details: genotype 1a H77, Huh-7, 96 h
[29] = test system: Hepatitis C virus; test: Resistant ratio of EC50 for wild type HCV1b to EC50 for HCV1b harboring NS5A L31F mutant infected in human HuH7 cells; type: functional, Hepacivirus hominis, genotype 1b, Huh-7
[30] = test system: Hepatitis C virus; test: Antiviral activity against HCV1b harboring NS5A L28T mutant infected in human HuH7 cells assessed as inhibition of viral replication after 4 days by luciferase reporter gene assay; type: functional, Hepacivirus hominis, genotype 1b, Huh-7
[31] = test system: Hepatitis C virus; test: Antiviral activity against HCV1b Con1 infected in human HuH7 cells assessed as inhibition of viral replication after 4 days by luciferase reporter gene assay; type: functional, organism-based, Hepacivirus hominis; details: isolate Con1, Huh-7, 96 h

**Q.** Which Efficacy [1] does the source give for `COC(=O)N[C@H](C(=O)N1CCC[C@H]1C(=O)Nc1ccc([C@@H]2CC[C@@H](c3ccc(NC(=O)[C@@H]4CCCN4C(=O)[C@@H](NC(=O)OC)C(C)C)cc3)N2c2ccc(C(C)(C)C)cc2)cc1)C(C)C` [OMBITASVIR] here?
**A.** The Efficacy was 100%.

**Q.** What about the Efficacy [2] of the same molecule?
**A.** The Efficacy was 73%.

**Q.** What about the “Ratio EC50” value [3] of the same molecule?
**A.** The value was 661.

**Q.** And the half-life [4]?
**A.** Its half-life is 4.4 h.

**Q.** And the “Ratio EC50” value [5]?
**A.** Its value is 243.

**Q.** What about the EC50 [6] of the same molecule?
**A.** Its EC50 is 1.71 pM.

**Q.** What about the EC50 [7] of the same molecule?
**A.** Its EC50 is 4.3 pM.

**Q.** And the bioavailability [8]?
**A.** Its bioavailability is 6.2%.

**Q.** What about the clearance [9] of the same molecule?
**A.** The clearance was 3 mL/min/kg.

**Q.** And the Efficacy [10]?
**A.** Its Efficacy is 60%.

**Q.** What about the EC50 [11] of the same molecule?
**A.** Its EC50 is 4.3 pM.

**Q.** What about the EC50 [12] of the same molecule?
**A.** The EC50 was 415 pM.

**Q.** And the remaining at 0.5 h [13]?
**A.** Its remaining at 0.5 h is 60%.

**Q.** What about the Cmax [14] of the same molecule?
**A.** Its Cmax is 640 ng/mL.

**Q.** And the “Ratio EC50” value [15]?
**A.** The value was 10270.

**Q.** And the half-life [16]?
**A.** Its half-life is 5 h.

**Q.** What about the “Ratio EC50” value [17] of the same molecule?
**A.** Its value is 284.

**Q.** What about the “Ratio EC50” value [18] of the same molecule?
**A.** The value was 77.

**Q.** What about the AUC [19] of the same molecule?
**A.** The AUC was 2400 ng·h/mL.

**Q.** And the half-life [20]?
**A.** Its half-life is 9.9 h.

**Q.** What about the EC50 [21] of the same molecule?
**A.** The EC50 was 12.4 pM.

**Q.** What about the Activity [22] of the same molecule?
**A.** The Activity was “Non-toxic”.

**Q.** What about the half-life [23] of the same molecule?
**A.** Its half-life is 7.3 h.

**Q.** What about the “Ratio EC50” value [24] of the same molecule?
**A.** The value was 1675.

**Q.** And the Efficacy [25]?
**A.** The Efficacy was 60%.

**Q.** What about the Vd [26] of the same molecule?
**A.** Its Vd is 1.5 L/kg.

**Q.** And the “Ratio EC50” value [27]?
**A.** Its value is 12323.

**Q.** What about the EC50 [28] of the same molecule?
**A.** The EC50 was 14 pM.

**Q.** And the “Ratio EC50” value [29]?
**A.** Its value is 10.

**Q.** What about the Efficacy [30] of the same molecule?
**A.** Its Efficacy is 17%.

**Q.** And the EC50 [31]?
**A.** Its EC50 is 5 pM.
